Assays:
Enterococcus faecium = experiment: Antimicrobial susceptibility by disk diffusion (EUCAST); assay type: cell-based
Method: (§1) The antimicrobial susceptibility of the four ESKAPE bacteria Acinetobacter baumannii, Enterococcus faecium, P. aeruginosa, and S. aureus, made available by the culture collection of IZSM, was evaluated by the disk diffusion method. Antimicrobials used were different and specific per each bacterium under study. […] Thereby, the diameter of the inhibition zones was measured, and bacteria were classified as resistant or sensitive per antibiotic tested in agreement with the European Committee for Antimicrobial Susceptibility Testing (EUCAST, 2025) breakpoints.

[1] = tested on: Staphylococcus aureus (MRSA); experiment: as above; assay type: cell-based
Method: as §1

Row | Structure (SMILES) | Susceptibility of the strain, in words (Enterococcus faecium) | Susceptibility of the strain, in words [1]
1 | CC1(C)S[C@@H]2[C@H](NC(=O)[C@H](N)c3ccccc3)C(=O)N2[C@H]1C(=O)O [Ampicillin] | resistant | 
2 | CO[C@@]1(NC(=O)Cc2cccs2)C(=O)N2C(C(=O)O)=C(COC(N)=O)CS[C@@H]21 [Cefoxitin] |  | important resistance was detected
3 | O=C(O)c1cn(C2CC2)c2cc(N3CCNCC3)c(F)cc2c1=O [Ciprofloxacin] | resistant | important resistance was detected
4 | CC[C@H]1OC(=O)[C@H](C)[C@@H](O[C@H]2C[C@@](C)(OC)[C@@H](O)[C@H](C)O2)[C@H](C)[C@@H](O[C@@H]2O[C@H](C)C[C@H](N(C)C)[C@H]2O)[C@](C)(O)C[C@@H](C)C(=O)[C@H](C)[C@@H](O)[C@]1(C)O [Erythromycin] |  | important resistance was detected
5 | C[C@H]1COc2c(N3CCN(C)CC3)c(F)cc3c(=O)c(C(=O)O)cn1c23 [Levofloxacin] | resistant | important resistance was detected
6 | CN[C@H](CC(C)C)C(=O)N[C@H]1C(=O)N[C@@H](CC(N)=O)C(=O)N[C@H]2C(=O)N[C@H]3C(=O)N[C@H](C(=O)N[C@H](C(=O)O)c4cc(O)cc(O)c4-c4cc3ccc4O)[C@H](O)c3ccc(c(Cl)c3)Oc3cc2cc(c3O[C@@H]2O[C@H](CO)[C@@H](O)[C@H](O)[C@H]2O[C@H]2C[C@](C)(N)[C@H](O)[C@H](C)O2)Oc2ccc(cc2Cl)[C@H]1O [Vancomycin] | resistant | 
